Data from patent US5106407A, “Iodones and methods for antimicrobial use” (priority 1989, dated 1992).

What was measured:
[1] = system: bacteria listed in Table I, Klebsiella oxytoca, Enterobacter gergoviae, Pseudomonas putida #1, and Pseudomonas putida #2; assay: protein shampoo preservation test
Protocol: (§1) Fifty gram aliquots of the latex were placed in sterile bottles and one hundred gram aliquots of the diluted cutting oil were placed in 250-mL Erlenmeyer flasks. An appropriate amount of a fresh 1 percent stock solution of (2-nitrophenyl)-iodonium 2,2-dimethyl-4,6-dioxo-1,3-dioxan-5-ylide in acetone-water was added to achieve the desired final concentrations (see Tables 5 and 6). A small portion of the respective latex or cutting oil preparation was then streaked onto Tryptic Soy Agar (TSA) petri plates using sterile cotton swabs to determine whether the preparations were sterile. If the particular preparation was sterile, it was then inoculated with an appropriate volume (0.1 mL for the latex and 0.2 mL for the cutting oil) of a mixture of equal aliquots of 24 hr cultures of each of the bacterial organisms listed in Table 1 (not the fungi and yeast). The latex samples were incubated at 30° C. and the cutting oils were agitated on a rotary shaker at room temperature. After 24 hr, all samples were again streaked on TSA. All plates were then incubated at 30° C. for 48 hr and then rated 1 to 10 according to the growth rating system described in Table 4.
(§2) The results from this first set of streaks after inoculation are listed in the columns labeled streak number 1 in Tables 5 and 6. Samples with a rating of 3 or less from streak number 1 were reinoculated as described for the first inoculation above. Samples with a rating of 4 or greater were not reinoculated. After another 24 hr all samples were again restreaked on TSA agar. The results from these second streaks were labeled streak number 2 in Tables 5 and 6. Samples were reinoculated and restreaked in this fashion for a maximum of 10 streaks. Any samples with two streaks in a row with a ten rating were not restreaked again.
(§3) The ingredients of the hand creme, hand lotion, and protein shampoo are listed in Tables 7, 8 and 9, respectively. In the cosmetic preservative procedures, the stock solution of (2-nitrophenyl)-iodonium 2,2-dimethyl-4,6-dioxo-1,3-dioxan-5-ylide) was made in dimethylformamide (DMF)/water solution. In addition to the bacteria listed in Table I, the following bacteria were also included in the inocula: Klebsiella oxytoca, Enterobacter gergoviae, Pseudomonas putida #1, and Pseudomonas putida #2.

[2] = system: bacteria listed in Table I, Klebsiella oxytoca, Enterobacter gergoviae, Pseudomonas putida #1, and Pseudomonas putida #2; assay: hand lotion preservation test;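 also: colony count scale from 1 for no colonies up to 10 for a solid mass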
Protocol: as §1, §2, §3

CC1(C)OC(=O)[C-]([I+]c2ccccc2[N+](=O)[O-])C(=O)O1 [Example 19, (2-Nitrophenyl)-iodonium 2,2-dimethyl-4,6-dioxo-1,3-dioxan-5-ylide]
growth rating ([1]; 10 ppm, streak 1): 1 (0)
growth rating ([1]; 10 ppm, streak 2): 1 (0)
growth rating ([1]; 10 ppm, streak 10): 1 (0)
growth rating ([1]; 25 ppm, streak 1): 1 (0)
growth rating ([1]; 25 ppm, streak 2): 1 (0)
growth rating ([1]; 25 ppm, streak 3): 1 (0)
growth rating ([1]; 25 ppm, streak 4): 1 (0)
growth rating ([1]; 25 ppm, streak 5): 1 (0)
growth rating ([1]; 25 ppm, streak 6): 1 (0)
growth rating ([1]; 25 ppm, streak 7): 1 (0)
growth rating ([1]; 25 ppm, streak 8): 1 (0)
growth rating ([1]; 25 ppm, streak 9): 1 (0)
growth rating ([1]; 25 ppm, streak 10): 1 (0)
growth rating ([1]; 50 ppm, streak 1): 1 (0)
growth rating ([1]; 50 ppm, streak 2): 1 (0)
growth rating ([1]; 50 ppm, streak 3): 1 (0)
growth rating ([1]; 50 ppm, streak 4): 1 (0)
growth rating ([1]; 50 ppm, streak 5): 1 (0)
growth rating ([1]; 50 ppm, streak 6): 1 (0)
growth rating ([1]; 50 ppm, streak 7): 1 (0)
growth rating ([1]; 50 ppm, streak 8): 1 (0)
growth rating ([1]; 50 ppm, streak 9): 1 (0)
growth rating ([1]; 50 ppm, streak 10): 1 (0)
growth rating ([1]; 100 ppm, streak 1): 1 (0)
growth rating ([1]; 100 ppm, streak 2): 1 (0)
growth rating ([1]; 100 ppm, streak 3): 1 (0)
growth rating ([1]; 100 ppm, streak 4): 1 (0)
growth rating ([1]; 100 ppm, streak 5): 1 (0)
growth rating ([1]; 100 ppm, streak 6): 1 (0)
growth rating ([1]; 100 ppm, streak 7): 1 (0)
growth rating ([1]; 100 ppm, streak 8): 1 (0)
growth rating ([1]; 100 ppm, streak 9): 1 (0)
growth rating ([1]; 100 ppm, streak 10): 4 (11-25)
growth rating ([2]; 10 ppm, streak 1): 1 (0)
growth rating ([2]; 10 ppm, streak 2): 1 (0)
growth rating ([2]; 10 ppm, streak 3): 2 (1-4)
growth rating ([2]; 10 ppm, streak 6): 9
growth rating ([2]; 10 ppm, streak 8): 9
growth rating ([2]; 10 ppm, streak 9): 10
growth rating ([2]; 10 ppm, streak 10): 10
growth rating ([2]; 25 ppm, streak 1): 1 (0)
growth rating ([2]; 25 ppm, streak 2): 1 (0)
growth rating ([2]; 25 ppm, streak 3): 1 (0)
growth rating ([2]; 25 ppm, streak 4): 1 (0)
growth rating ([2]; 25 ppm, streak 5): 1 (0)
growth rating ([2]; 25 ppm, streak 6): 1 (0)
growth rating ([2]; 25 ppm, streak 7): 1 (0)
growth rating ([2]; 25 ppm, streak 8): 1 (0)
growth rating ([2]; 25 ppm, streak 9): 1 (0)
growth rating ([2]; 25 ppm, streak 10): 2 (1-4)
growth rating ([2]; 50 ppm, streak 1): 1 (0)
growth rating ([2]; 50 ppm, streak 2): 1 (0)
growth rating ([2]; 50 ppm, streak 3): 1 (0)
growth rating ([2]; 50 ppm, streak 4): 1 (0)
growth rating ([2]; 50 ppm, streak 5): 1 (0)
growth rating ([2]; 50 ppm, streak 6): 1 (0)
growth rating ([2]; 50 ppm, streak 7): 1 (0)
growth rating ([2]; 50 ppm, streak 8): 1 (0)
growth rating ([2]; 50 ppm, streak 9): 1 (0)
growth rating ([2]; 50 ppm, streak 10): 1 (0)
growth rating ([2]; 100 ppm, streak 1): 1 (0)
growth rating ([2]; 100 ppm, streak 2): 1 (0)
growth rating ([2]; 100 ppm, streak 3): 1 (0)
growth rating ([2]; 100 ppm, streak 4): 1 (0)
growth rating ([2]; 100 ppm, streak 5): 1 (0)
growth rating ([2]; 100 ppm, streak 6): 1 (0)
growth rating ([2]; 100 ppm, streak 7): 1 (0)
growth rating ([2]; 100 ppm, streak 8): 1 (0)
growth rating ([2]; 100 ppm, streak 9): 1 (0)
growth rating ([2]; 100 ppm, streak 10): 1 (0)
